Source: ChEMBL document CHEMBL1153502, “Investigation of the pharmacophore space of Severe Acute Respiratory Syndrome coronavirus (SARS-CoV) NTPase/helicase by dihydroxychromone derivatives” (Bioorg Med Chem Lett, 2009)

Tests used:
[1] = target: T1, Replicase polyprotein 1ab (Severe acute respiratory syndrome-related coronavirus, UniProt P0C6X7); test: Inhibition of ATPase activity of SARS coronavirus helicase assessed as phosphate release by malachite green assay
[2] = target: T1, Replicase polyprotein 1ab; test: Inhibition of SARS coronavirus helicase assessed as duplex-DNA unwinding by FRET based assay

SMILES	IC50 [1] [µM]	IC50 [2] [µM]
O=c1cc(CNCc2cccc(Cl)c2)oc2ccc(O)c(O)c12	> 50	> 50
O=c1c(O)c(-c2ccc3c(c2)OCO3)oc2cc(O)cc(O)c12	> 50	> 50
O=c1cc(CNCc2ccc(Cl)cc2)oc2ccc(O)c(O)c12	> 50	> 50
O=c1c(O)c(-c2ccc3c(c2)OCO3)oc2cc(OCc3cccc(Cl)c3)cc(O)c12	> 50	15.4
N#Cc1cccc(COc2cc(O)c3c(=O)c(O)c(-c4ccc5c(c4)OCO5)oc3c2)c1	42.9	8.1
N#Cc1cccc(COc2cc(O)c3c(=O)c(O)c(-c4ccc(O)c(O)c4)oc3c2)c1	25.4	2.7
N#Cc1cccc(CNCc2cc(=O)c3c(O)c(O)ccc3o2)c1	> 50	> 50
O=c1c(O)c(-c2ccc(O)c(O)c2)oc2cc(OCc3ccc(Cl)cc3)cc(O)c12	20.9	4.1
O=c1c(O)c(-c2ccc(O)c(O)c2)oc2cc(OCc3cccc(Cl)c3)cc(O)c12	> 50	5.2
O=c1c(O)c(-c2ccc3c(c2)OCO3)oc2cc(OCc3ccc(Cl)cc3)cc(O)c12	> 50	9.3
